This passage reports Ki and inhibition results from PMC6171417, “Carbonic anhydrase inhibition with a series of novel benzenesulfonamide-triazole conjugates” (Journal of Enzyme Inhibition and Medicinal Chemistry, 2018).

The target in one assay is T1, hCA I (Homo sapiens, UniProt P00915).
T1 construct: gene CA1; recombinant, obtained in-house as reported earlier; cytosolic
In words: stopped-flow CO2 hydrase assay. The format is biochemical. From the text:
stopped-flow CO2 hydrase assay on hCA I

A further assay concerns the target T2, hCA IX (Homo sapiens, UniProt Q16790).
T2 construct: gene CA9; recombinant, obtained in-house as reported earlier
In words: stopped-flow CO2 hydrase assay. The format is biochemical. From the text:
stopped-flow CO2 hydrase assay on hCA IX

A further assay addresses T3, hCA II (Homo sapiens, UniProt P00918).
T3 construct: gene CA2; recombinant, obtained in-house as reported earlier; cytosolic
Briefly: stopped-flow CO2 hydrase assay. The assay is classed as biochemical. From the text: stopped-flow CO2 hydrase assay on hCA II

The test system of a further assay is BT-549. Briefly: cells. Also on record: species or system NCI human tumour cell line panel; NCI one-dose anti-proliferative screen, human tumour cell line panel, growth inhibition percent (GI%). The following applies: Homo sapiens, BT-549; growth inhibition (GI%), single dose.
A further assay has as its system COLO 205. In words: cells. Also on record: species or system NCI human tumour cell line panel; NCI one-dose anti-proliferative screen, human tumour cell line panel, growth inhibition percent (GI%). The following applies: Homo sapiens, COLO 205; growth inhibition (GI%), single dose.
A further assay concerns HCC-2998. In words: cells. Details: species or system NCI human tumour cell line panel; NCI one-dose anti-proliferative screen, human tumour cell line panel, growth inhibition percent (GI%). The following applies: Homo sapiens, HCC 2998; growth inhibition (GI%), single dose.
For another assay, the system named is M14. Briefly: cells. The following applies: Homo sapiens, M14; growth inhibition (GI%), single dose. Details: species or system NCI human tumour cell line panel; NCI one-dose anti-proliferative screen, human tumour cell line panel, growth inhibition percent (GI%).
The subject of a further assay is MALME-3M. Briefly: cells. Details: species or system NCI human tumour cell line panel; NCI one-dose anti-proliferative screen, human tumour cell line panel, growth inhibition percent (GI%). The following applies: Homo sapiens, Malme-3M; growth inhibition (GI%), single dose.
A further assay relates to MDA-MB-468. Briefly: cells. Also on record: species or system NCI human tumour cell line panel; NCI one-dose anti-proliferative screen, human tumour cell line panel, growth inhibition percent (GI%). The following applies: Homo sapiens, MDA-MB-468; growth inhibition (GI%), single dose.
Another assay relates to SF-268. In words: cells. The following applies: Homo sapiens, SF-268; growth inhibition (GI%), single dose. Also on record: species or system NCI human tumour cell line panel; NCI one-dose anti-proliferative screen, human tumour cell line panel, growth inhibition percent (GI%).
For the next assay, the system named is SF-295. Briefly: cells. The following applies: Homo sapiens, SF-295; growth inhibition (GI%), single dose. Details: species or system NCI human tumour cell line panel; NCI one-dose anti-proliferative screen, human tumour cell line panel, growth inhibition percent (GI%).
The test system of assay [1] is SF-539. Briefly: cells. Also on record: species or system NCI human tumour cell line panel; NCI one-dose anti-proliferative screen, human tumour cell line panel, growth inhibition percent (GI%). The following applies: Homo sapiens, SF-539; growth inhibition (GI%), single dose.
A further assay relates to SW-620. Briefly: cells. The following applies: Homo sapiens, SW-620; growth inhibition (GI%), single dose. Details: species or system NCI human tumour cell line panel; NCI one-dose anti-proliferative screen, human tumour cell line panel, growth inhibition percent (GI%).
Another assay deals with 786-0. Briefly: cells. Also on record: species or system NCI human tumour cell line panel. The following applies: Homo sapiens, 786-0; growth inhibition (GI%), single dose.
For a further assay, the system named is A498. Briefly: cells. Details: species or system NCI human tumour cell line panel. The following applies: Homo sapiens, A498; growth inhibition (GI%), single dose.
For another assay, the system named is EKVX. Briefly: cells. Also on record: species or system NCI human tumour cell line panel. The following applies: Homo sapiens, EKVX; growth inhibition (GI%), single dose.
In another assay the test system is HOP-62. Briefly: cells. The following applies: Homo sapiens, HOP-62; growth inhibition (GI%), single dose. Also on record: species or system NCI human tumour cell line panel.
The next assay relates to LOX IMVI. Briefly: cells. Also on record: species or system NCI human tumour cell line panel. The following applies: Homo sapiens, LOX IMVI; growth inhibition (GI%), single dose.
The next assay deals with MDA-MB-435. Briefly: cells. Details: species or system NCI human tumour cell line panel. The following applies: Homo sapiens, MDA-MB-435; growth inhibition (GI%), single dose.
For assay [2], the system named is SF-539. In words: cells. Details: species or system NCI human tumour cell line panel. The following applies: Homo sapiens, SF-539; growth inhibition (GI%), single dose.
The test system of the next assay is SN12C. Briefly: cells. The following applies: Homo sapiens, SN12C; growth inhibition (GI%), single dose. Also on record: species or system NCI human tumour cell line panel.
The next assay relates to T-47D. In words: cells. Also on record: species or system NCI human tumour cell line panel. The following applies: Homo sapiens, T47D; growth inhibition (GI%), single dose.
The test system of a further assay is TK-10. In words: cells. Also on record: species or system NCI human tumour cell line panel; NCI one-dose anti-proliferative screen, human tumour cell line panel, growth inhibition percent (GI%). The following applies: Homo sapiens, TK-10; growth inhibition (GI%), single dose.

Where two headings read alike, the source gives them in different places.

T1 sequence (P00915 2-261): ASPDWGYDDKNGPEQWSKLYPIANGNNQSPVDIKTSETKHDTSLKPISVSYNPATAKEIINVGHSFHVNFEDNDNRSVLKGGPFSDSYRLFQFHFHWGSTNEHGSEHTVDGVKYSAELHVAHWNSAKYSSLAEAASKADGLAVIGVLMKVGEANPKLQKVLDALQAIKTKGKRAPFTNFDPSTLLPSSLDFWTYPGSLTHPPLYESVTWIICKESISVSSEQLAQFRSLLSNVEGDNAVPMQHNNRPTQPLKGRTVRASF

The Ki is the dissociation constant of the complex between target and ligand, obtained from inhibition or displacement. Low values mean higher affinity, high ones lower affinity. A word on the inhibition: it is the percentage by which the read-out fell short of the control. High values mean strong suppression, low ones little suppression. `CN(C)c1ccc(-c2nc3c(nnn3-c3ccc(S(N)(=O)=O)cc3)c(N)c2C#N)cc1` [compound 17, 4-(7-amino-6-cyano-5-(4-(dimethylamino)phenyl)-3H-[1,2,3]triazolo[4,5-b]pyridin-3-yl)benzenesulfonamide]: the inhibitory constant (Ki) is 683 nM at hCA I; 35.1 nM on hCA IX (CO2 […], […] Hepes pH […] Na2SO4, […] phenol red, […] min pre-incubation at room temperature); 56.8 nM on hCA II. The inhibition at 10 µM in the assay with BT-549 is 0.3%; in the assay with COLO 205, 17%; in the assay with HCC-2998, 3.9%; in the assay on M14, 3.5%; in the assay with MALME-3M, 0.4%; in the assay with MDA-MB-468, 3.2%. Besides, the inhibition at 10 µM worked out at 3.9% with SF-268, 3.1% with SF-295, 2.7% in the assay on SF-539 [1] and 2.7% with SW-620.

As for `N#Cc1nnn(-c2ccc(S(N)(=O)=O)cc2)c1NS(=O)(=O)c1ccccc1` [compound 11, N-(4-cyano-1-(4-sulfamoylphenyl)-1H-1,2,3-triazol-5-yl)benzenesulfonamide], the inhibition constant (Ki) at hCA I turned out to be 5550 nM; on hCA IX, 144 nM; at hCA II it was 356 nM. Besides, the inhibition at 10 µM in the assay with M14 was 3.3%; in the assay with MALME-3M it was 1.2%; in the assay with SF-539 [1] it was 3.2%; with SW-620, 2.3%.

Regarding `Nc1nc(=S)[nH]c2c1nnn2-c1ccc(S(N)(=O)=O)cc1` [compound 18, 4-(7-amino-5-thioxo-4,5-dihydro-3H-[1,2,3]triazolo[4,5-d]pyrimidin-3-yl)benzenesulfonamide], the inhibitory constant (Ki) on hCA I was found to be 955 nM; at hCA IX, 272 nM; on hCA II it was 732 nM. Further, the values for the inhibition at 10 µM in the assay with MDA-MB-468, with SF-268 and with SW-620 were 3.5%, 1.5% and 4.3%, respectively.

In the case of `CCn1c(=S)[nH]c2c(nnn2-c2ccc(S(N)(=O)=O)cc2)c1=N` [compound 20, 4-(6-ethyl-7-imino-5-thioxo-4,5,6,7-tetrahydro-3H-[1,2,3]triazolo[4,5-d]pyrimidin-3-yl)benzenesulfonamide], the Ki on hCA I turned out to be 909 nM; on hCA IX it was 242 nM; at hCA II, 930 nM. Further, 10 µM produced 2.2% inhibition in the assay on HCC-2998.

As for `N#Cc1nnn(-c2ccc(S(N)(=O)=O)cc2)c1NC(=O)CCl` [compound 5, 5], the inhibition at 10 µM in the assay with 786-0 was 2.1%; in the assay with A498 it was 8.6%; in the assay with EKVX it was 8.6%; with HOP-62, 7.9%; with LOX IMVI it was 5.5%; with MDA-MB-435, 0.4%. Moreover, the inhibition at 10 µM with SF-539 [2] came out at 1.3%; in the assay with SN12C, 11.8%; with T-47D it was 4.8%.

Turning to `N#Cc1nnn(-c2ccc(S(N)(=O)=O)cc2)c1NCC(=O)c1ccccc1` [compound 7, 7], the inhibition at 10 µM is 2% with BT-549; 2.6% in the assay with M14; 3.6% with MALME-3M; 3.3% in the assay with MDA-MB-468; 6.5% in the assay with SF-268; 2.8% in the assay on SW-620.

As to `N#Cc1c(-c2ccc(Cl)cc2)nc2c(nnn2-c2ccc(S(N)(=O)=O)cc2)c1N` [compound 16, 4-(7-amino-5-(4-chlorophenyl)-6-cyano-3H-[1,2,3]triazolo[4,5-b]pyridin-3-yl)benzenesulfonamide], the Ki was 605 nM at hCA I, 42.6 nM at hCA IX and 169 nM at hCA II. Moreover, the inhibition at 10 µM amounted to 5.4% in the assay with SF-268 and 5.7% in the assay with SF-295.

`N#Cc1nnn(-c2ccc(S(N)(=O)=O)cc2)c1N` [compound 3, 3]: the inhibition at 10 µM with COLO 205 was determined as 5.1%; in the assay on M14, 2.7%; in the assay on SF-268, 2.8%; in the assay with SF-539 [1] it was 1.9%; in the assay on SW-620 it was 5.1%; in the assay with TK-10, 9.2%.

Regarding `N#Cc1nnn(-c2ccc(S(N)(=O)=O)cc2)c1/N=C/c1ccc(Cl)cc1` [compound 9, 9], the inhibition at 10 µM with BT-549 came out at 11.3%; in the assay with SF-295 it was 0.3%; in the assay on TK-10 it was 7.6%.
